The text below walks through data of patent US6686393B1, “Pharmaceutical compositions having antiviral activity against human cytomegalovirus” (Murdock International Corporation, priority 1990, dated 2004).

The subject of data set [1] is HCMV, strain C8805-37 (DHPG-resistant). Description: microbe, parasite or virus in culture. Conditions: for inhibition at 10 µg/mL: Human betaherpesvirus 5, MRC5, 96 h, read-out: Percent Inhibition Compared to Controls; for inhibition at 0.01 µg/mL / inhibition at 0.032 µg/mL / inhibition at 0.1 µg/mL / inhibition at 0.32 µg/mL / inhibition at 1 µg/mL / inhibition at 3.2 µg/mL: Human betaherpesvirus 5, MRC5, read-out: Percent Inhibition Compared to Controls. Format: cell-based, human cytomegalovirus.

Data set [2] has as its system human cytomegalovirus (HCMV), strain AD-169. Description: Antiviral test (plaque reduction) versus HCMV, strain AD-169, in MRC-5 cells. Format: cell-based.
In data set [3] the test system is MRC-5 cells.
The mark [4] stands for this setting: Human betaherpesvirus 5, AD169, MRC5, read-out: % Reduction.
Setting [5] is: Table 9 summary, two values = two experiments.
The mark [6] stands for this setting: 10 μg/ml, Example 2, ethanol stock (protohypericin in DMSO), cells exposed 6 or more days.
Setting [7] is: Human betaherpesvirus 5, AD169, MRC5, 0.01 μg/ml, Example 2, read-out: Percent Inhibition of Plaque Numbers (Compared to Virus Controls).
Setting [8] is: Human betaherpesvirus 5, AD169, MRC5, 0.032 μg/ml, Example 2, read-out: Percent Inhibition of Plaque Numbers (Compared to Virus Controls).
Setting [9] is: Human betaherpesvirus 5, AD169, MRC5, 0.1 μg/ml, Example 2, read-out: Percent Inhibition of Plaque Numbers (Compared to Virus Controls).
Setting [10] is: Human betaherpesvirus 5, AD169, MRC5, 0.32 μg/ml, Example 2, read-out: Percent Inhibition of Plaque Numbers (Compared to Virus Controls).
Where [11] appears, read: Human betaherpesvirus 5, AD169, MRC5, 1.0 μg/ml, Example 2, read-out: Percent Inhibition of Plaque Numbers (Compared to Virus Controls).
The mark [12] stands for this setting: Example 2, cells exposed 6 or more days.

“And” between values parts separate entries of the source, which are not always exact repeats. Equal values may be shown once. “Also recorded” adds a separate entry of the source. Read-outs that look alike come from different tables or passages of the source.

On to `O=C1c2ccccc2C(=O)c2c1ccc(O)c2O` [Alizarin, alizarin], for which, in data set [1], the inhibition at 10 µg/mL worked out at 97%, the inhibition at 0.01 µg/mL came out at 0%, the inhibition at 0.032 µg/mL turned out to be 19% and the inhibition at 0.1 µg/mL stood at 0%. Moreover, in data set [1], the inhibition at 0.32 µg/mL was determined as 0%, the inhibition at 1 µg/mL was found to be 21% and the inhibition at 3.2 µg/mL was found to be 75%. The “Activity against HCMV” value in data set [2] was “show activity; also recorded: active”. In data set [2] (setting [4]), the inhibition at 0.01 µg/mL is 0%, the inhibition at 0.032 µg/mL came out at 0%, the inhibition at 0.1 µg/mL stood at 0% and the inhibition at 0.32 µg/mL worked out at 0%. Besides, in data set [2] (setting [4]), the inhibition at 1 µg/mL came to 0%, the inhibition at 3.2 µg/mL amounted to 0% and the inhibition at 10 µg/mL amounted to 96%. Further, in data set [3] (Example 3, cells exposed 4 days), the CD50 is over 10 µg/mL. The CD50 in data set [3] (Example 5) is > 10 µg/mL and ~13 µg/mL. Further, the CD50 in data set [3] (setting [5]) was over 10 µg/mL. Besides, in data set [3] (Table 10 summary, DHPG resistant HCMV test), the CD50 was over 10 µg/mL.

For the compound `Cc1cc(O)c2c(c1)Cc1cc(O)cc(O)c1C2=O` [Emodin Anthrone, emodin anthrone], in data set [1], the “Activity against DHPG resistant HCMV strain” value is “shows activity; also recorded: active”, the “Percent Inhibition Compared to Controls” value is “toxic”, the inhibition at 0.01 µg/mL is 0% and the inhibition at 0.032 µg/mL worked out at 0%. In data set [1], the inhibition at 0.1 µg/mL was 0%, the inhibition at 0.32 µg/mL turned out to be 0%, the inhibition at 1 µg/mL was 24% and the inhibition at 3.2 µg/mL was 100%. In data set [2] (3.2 μg/ml, Example 2), the “Percent Inhibition of Plaque Numbers (Compared to Virus Controls)” value (“Percent Inhibition of Plaque Numbers” for short) is listed as “toxic”. The “Percent Inhibition of Plaque Numbers” value in data set [2] (setting [6]) is given as “toxic”. In addition, in data set [2] (setting [7]), the inhibition at 0.01 µg/mL was 0%. Further, the inhibition at 0.032 µg/mL in data set [2] (setting [8]) is 0%. Besides, the inhibition at 0.1 µg/mL in data set [2] (setting [9]) came out at 0%. Further, the inhibition at 0.32 µg/mL in data set [2] (setting [10]) came out at 0%. The inhibition at 1 µg/mL in data set [2] (setting [11]) was 0%. In addition, the “Activity in initial screening against HCMV in vitro” value in data set [2] (initial screening, in words) was “not active”. Further, the CD50 in data set [3] (human, 4 days) was 2.6 µg/mL.

For the compound `Cc1cc(O)c2c(c1)C(C1c3cc(C)cc(O)c3C(=O)c3c(O)cc(O)cc31)c1cc(O)cc(O)c1C2=O` (stereo not drawn) [Emodin Bianthrone (meso), emodin bianthrone], the “Percent Inhibition of Plaque Numbers” value in data set [2] (0.01 μg/ml, Example 2) is listed as 0%; in data set [2] (0.032 μg/ml, Example 2), 0%; in data set [2] (0.1 μg/ml, Example 2), 0%; in data set [2] (0.32 μg/ml, Example 2) it was 0%; in data set [2] (1.0 μg/ml, Example 2), 32%; in data set [2] (3.2 μg/ml, Example 2), “toxic”. In addition, in data set [2] (setting [6]), the “Percent Inhibition of Plaque Numbers” value is “toxic”. In addition, the CD50 in data set [3] (setting [12]) and in data set [3] (setting [5]) was 1.8 µg/mL each time.

`Cc1cc(O)c2c(c1)C(=O)c1cc(O)cc(O)c1C2=O` [Emodin, emodin]: the “Activity against DHPG resistant HCMV strain” value in data set [1] is given as “retain essentially the same activity”. Moreover, the “Percent Inhibition Compared to Controls” value in data set [1] is reported as “toxic”. The inhibition at 0.01 µg/mL in data set [1] and in data set [2] (setting [7]) was 0% throughout. Further, the inhibition at 0.032 µg/mL in data set [1] and in data set [2] (setting [8]) was 0% throughout. The inhibition at 0.1 µg/mL in data set [1] was 0%; in data set [2] (Human betaherpesvirus 5, AD169, MRC5, 0.1 μg/ml, Example 1, DMSO stock, read-out: % Inhibition) it was 9%; in data set [2] (setting [9]) it was 0%. Moreover, the inhibition at 0.32 µg/mL in data set [1] was found to be 0%; in data set [2] (Human betaherpesvirus 5, AD169, MRC5, 0.32 μg/ml, Example 1, DMSO stock, read-out: % Inhibition), 1%; in data set [2] (setting [10]), 0%. In addition, the inhibition at 1 µg/mL in data set [1] was 46%; in data set [2] (Human betaherpesvirus 5, AD169, MRC5, 1.0 μg/ml, Example 1, DMSO stock, read-out: % Inhibition) it was 72%; in data set [2] (setting [11]), 39%. Besides, the inhibition at 3.2 µg/mL in data set [1] was 100%; in data set [2] (Human betaherpesvirus 5, AD169, MRC5, 3.2 μg/ml, Example 1, DMSO stock, read-out: % Inhibition) it was 100%; in data set [2] (Human betaherpesvirus 5, AD169, MRC5, 3.2 μg/ml, Example 2, read-out: Percent Inhibition of Plaque Numbers (Compared to Virus Controls)), 100%. Besides, the “Number of Plaques” value in data set [2] (0.0032 μg/ml, Example 1, DMSO stock, average of two wells) is 79; in data set [2] (0.1 μg/ml, Example 1, DMSO stock, average of two wells) it was 72; in data set [2] (0.32 μg/ml, Example 1, DMSO stock, average of two wells), 78; in data set [2] (1.0 μg/ml, Example 1, DMSO stock, average of two wells), 22; in data set [2] (3.2 μg/ml, Example 1, DMSO stock, average of two wells), 0; in data set [2] (10 μg/ml, Example 1, DMSO stock, average of two wells) it was 0. Further, the “Percent Inhibition of Plaque Numbers” value in data set [2] (setting [6]) is on record as “toxic”. The compound also returned an inhibition at 0.0032 µg/mL in data set [2] (Human betaherpesvirus 5, AD169, MRC5, 0.0032 μg/ml, Example 1, DMSO stock) of 0%. Moreover, the inhibition at 10 µg/mL in data set [2] (Human betaherpesvirus 5, AD169, MRC5, 10 μg/ml, Example 1, DMSO stock, read-out: % Inhibition) was 100%. For the same compound, the “Activity against HCMV” value is given as “show activity” in data set [2] (statement in words on the plaque reduction results) and “anti-HCMV activity” in data set [2] (statement in words on the plaque reduction results, listed as emodin). Further, in data set [3] (human, 4 days), the CD50 turned out to be 3.4 µg/mL.

With `O=C(O)c1cc(O)c2c(c1)[C@@H]([C@H]1c3cc(C(=O)O)cc(O)c3C(=O)c3c(O[C@@H]4O[C@H](CO)[C@@H](O)[C@H](O)[C@H]4O)cccc31)c1cccc(O[C@@H]3O[C@H](CO)[C@@H](O)[C@H](O)[C@H]3O)c1C2=O` [Meso Sennoside B, sennoside B], the “Percent Inhibition of Plaque Numbers” value was found to be 0% in data set [2] (0.01 μg/ml, Example 2); 0% in data set [2] (0.032 μg/ml, Example 2); 0% in data set [2] (0.1 μg/ml, Example 2); 0% in data set [2] (0.32 μg/ml, Example 2); 0% in data set [2] (1.0 μg/ml, Example 2); 0% in data set [2] (3.2 μg/ml, Example 2). For the same compound, in data set [2] (setting [6]), the “Percent Inhibition of Plaque Numbers” value is 0%. Besides, the CD50 in data set [3] (setting [12]) and in data set [3] (setting [5]) was over 10 µg/mL throughout.

As to `COc1cc(O)c2c(c1)C(=O)c1cc(C)cc(O)c1C2=O` [Physcione, physcione], the “% Reduction” value in data set [2] (0.01 μg/ml, Example 6) was 0%; in data set [2] (0.032 μg/ml, Example 6), 0%; in data set [2] (0.1 μg/ml, Example 6), 0%; in data set [2] (0.32 μg/ml, Example 6) it was 0%; in data set [2] (1.0 μg/ml, Example 6), 0%; in data set [2] (3.2 μg/ml, Example 6), 0%. In addition, in data set [2] (10.0 μg/ml, Example 6), the “% Reduction” value is reported as 0%. Besides, the “Number of Plaques” value in data set [2] (0.01 μg/ml, Example 6) is on record as 17; in data set [2] (0.032 μg/ml, Example 6) it was 14; in data set [2] (0.1 μg/ml, Example 6), 19; in data set [2] (0.32 μg/ml, Example 6), 18; in data set [2] (1.0 μg/ml, Example 6), 18; in data set [2] (3.2 μg/ml, Example 6) it was 25. Further, in data set [2] (10.0 μg/ml, Example 6), the “Number of Plaques” value worked out at 31. For the same compound, in data set [3], the CD50 was over 10 µg/mL.

With `O=C1c2ccccc2C(=O)c2c(O)c(O)cc(O)c21` [Purpurin, purpurin], in data set [2] (setting [4]), the inhibition at 0.01 µg/mL is 0%, the inhibition at 0.032 µg/mL came to 0%, the inhibition at 0.1 µg/mL worked out at 0% and the inhibition at 0.32 µg/mL stood at 0%. Also, in data set [2] (setting [4]), the inhibition at 1 µg/mL came to 0% and the inhibition at 3.2 µg/mL is 0%. The compound further yielded a CD50 in data set [3] (human) of 5.6 µg/mL.

For the compound `O=C1c2ccc(O)c(O)c2C(=O)c2c(O)ccc(O)c21` [Quinalizarin, quinalizarin], in data set [1], the inhibition at 10 µg/mL came to 98%, the inhibition at 0.01 µg/mL came out at 21%, the inhibition at 0.032 µg/mL turned out to be 44% and the inhibition at 0.1 µg/mL came out at 20%. For the same compound, in data set [1], the inhibition at 0.32 µg/mL came to 0%, the inhibition at 1 µg/mL amounted to 42% and the inhibition at 3.2 µg/mL turned out to be 88%. The “Activity against HCMV” value in data set [2] was “definitely active; also recorded: show activity”. For the same compound, the inhibition at 3.2 µg/mL in data set [2] (setting [4]) was determined as 100%. Also, the CD50 in data set [3] (human, 4 days) is over 10 µg/mL.

Take `O=C1c2ccccc2C(=O)c2c(O)ccc(O)c21` [Quinizarin, 1,4-dihydroxyanthraquinone]: in data set [2], the “Activity against HCMV” value is given as “Slight activity; also recorded: show activity; also recorded: activity but at lower levels”. In data set [2] (setting [4]), the inhibition at 0.01 µg/mL came out at 0%, the inhibition at 0.032 µg/mL is 0%, the inhibition at 0.1 µg/mL was 0% and the inhibition at 0.32 µg/mL was determined as 0%. Besides, the CD50 in data set [3] (human) is over 10 µg/mL.

For the compound protohypericin, in data set [2], the “Activity against HCMV” value is on record as “show activity; also recorded: good biological activity”, the “Activity in initial screening against HCMV in vitro” value is listed as “active” and the “Percent Inhibition of Plaque Numbers” value amounted to 0%. The CD50 in data set [3] (setting [12]) was found to be 5.6 µg/mL. The compound also came in with a CD50 in data set [3] (setting [5]) of 5.6 µg/mL.
